# Where two headings read alike, the source gives them in different places.
# Tests used:
# Format in all cases: cell-based
# [1] = tested on: K-562; assay: NCI-60 one-dose SRB screening; conditions: Homo sapiens, K562, K-562, Leukemia, 10 µM one dose, 48 h, read-out: growth percentage
# Procedure: (§1) The structures of the synthesized compounds 6a–h, 12a–c, 11, 13a–c, and 14a–c were submitted to the National Cancer Institute’s Developmental Therapeutics Program (NCI-DTP), and all of them were selected for preliminary in vitro anticancer activity screening against NCI-59 human cancer cell lines at a concentration of 10 µM, using the sulforhodamine B (SRB) assay to determine the growth percentage and cell viability.
# (§2) The in vitro NCI-60 cell line screening assay was conducted at the National Cancer Institute (NCI), Bethesda, USA against 59 cancer cell lines representing 9 types of cancers, as reported earlier. Briefly, the human cancer cell lines were grown in RPMI 1640 medium containing 5% fetal bovine serum and 2 mM L-glutamine and inoculated into 96-well microtiter plates in 100 μL (5000 to 40,000 cells/well). Then, the plates were incubated at 37 °C, 5% CO2, 95% air, and 100% relative humidity for 24 h. After that, two plates of each cell line were fixed in situ with TCA, to represent cell population at time zero (Tz). The tested compounds were dissolved in DMSO at 400-fold and added so that the final concentration became 10 μM. The plates were then incubated for an additional 48 h followed by the addition of cold TCA to terminate the assay in case of adherent cells. Then, the cells were fixed in situ by cold 50% (w/v) TCA (50 μL; final concentration, 10% TCA) and incubated for 1 h at 4 °C. After discarding the supernatant, the plates were washed 5 times with tap water and air dried. Sulforhodamine B (SRB) solution (100 μL) at 0.4% (w/v) in 1% HOAc was added to each well, and plates were incubated for 10 min. at rt. Then, washing with 1% acetic acid was conducted 5 times to remove the unbound dye followed by air drying. After that, 10 mM trizma base was added to solubilize the bound stain, and the absorbance was read on an automated plate reader at a wavelength of 515 nm. On the other hand, the methodology for suspension cells was the same except that 50 μL of 80% TCA (final concentration, 16% TCA) was gently added to terminate the assay by fixing settled cells at the bottom of the wells. Percentage growth inhibition (GI%) was calculated as follows:
# (§3) Growth percentage=Ti (test growth in the presence of compound at 10 µM )−Tz (time zero)/C (control growth)−Tz (time zero)×100 for Ti ≥ Tz;
# (§4) Growth percentage=Ti (test growth in the presence of compound at 10 µM )−Tz (time zero)/Tz (time zero)×100 for Ti < Tz.
# (§5) where values of 100, 40, 0, −40, and −100 mean no GI, 60% GI, no net G, 40% lethality, and all cells are dead, respectively.
# [2] = tested on: EKVX; assay: NCI-60 one-dose SRB screening; conditions: Homo sapiens, Non-Small Cell Lung Cancer, 10 µM one dose, 48 h, read-out: growth percentage
# Procedure: as §1, §2, §3, §4, §5
# [3] = tested on: HT29; assay: NCI-60 one-dose SRB screening; conditions: Homo sapiens, HT-29, HT29, Colon Cancer, 10 µM one dose, 48 h, read-out: growth percentage
# Procedure: as §1, §2, §3, §4, §5
# [4] = tested on: MDA-MB-435; assay: NCI-60 one-dose SRB screening; conditions: Homo sapiens, MDA-MB-435, Melanoma, 10 µM one dose, 48 h, read-out: growth percentage
# Procedure: as §1, §2, §3, §4, §5
# [5] = tested on: LOX IMVI; assay: NCI-60 one-dose SRB screening; conditions: Homo sapiens, Melanoma, 10 µM one dose, 48 h, read-out: growth percentage
# Procedure: as §1, §2, §3, §4, §5
# [6] = tested on: MDA-MB-468; assay: NCI-60 one-dose SRB screening; conditions: Homo sapiens, MDA-MB-468, Breast Cancer, 10 µM one dose, 48 h, read-out: growth percentage
# Procedure: as §1, §2, §3, §4, §5
# [7] = tested on: NCI-H460; assay: NCI-60 one-dose SRB screening; conditions: Homo sapiens, NCI-H460, Non-Small Cell Lung Cancer, 10 µM one dose, 48 h, read-out: growth percentage
# Procedure: as §1, §2, §3, §4, §5
# [8] = tested on: HCC-2998; assay: NCI-60 one-dose SRB screening; conditions: Homo sapiens, HCC-2998, Colon Cancer, 10 µM one dose, 48 h, read-out: growth percentage
# Procedure: as §1, §2, §3, §4, §5
# [9] = tested on: SK-OV-3; assay: NCI-60 one-dose SRB screening; conditions: Homo sapiens, SK-OV-3, Ovarian Cancer, 10 µM one dose, 48 h, read-out: growth percentage
# Procedure: as §1, §2, §3, §4, §5
# [10] = tested on: BT-549; assay: NCI-60 one-dose SRB screening; conditions: Homo sapiens, BT-549, Breast Cancer, 10 µM one dose, 48 h, read-out: growth percentage
# Procedure: as §1, §2, §3, §4, §5
# [11] = tested on: SF-295; assay: NCI-60 one-dose SRB screening; conditions: Homo sapiens, SF-295, CNS Cancer, 10 µM one dose, 48 h, read-out: growth percentage
# Procedure: as §1, §2, §3, §4, §5
# [12] = tested on: OVCAR-4; assay: NCI-60 one-dose SRB screening; conditions: Homo sapiens, OVCAR-4, Ovarian Cancer, 10 µM one dose, 48 h, read-out: growth percentage
# Procedure: as §1, §2, §3, §4, §5
# [13] = tested on: PC-3; assay: NCI-60 one-dose SRB screening; conditions: Homo sapiens, PC-3, Prostate Cancer, 10 µM one dose, 48 h, read-out: growth percentage
# Procedure: as §1, §2, §3, §4, §5
# [14] = tested on: CAKI-1; assay: NCI-60 one-dose SRB screening; conditions: Homo sapiens, CAKI-1, Renal Cancer, 10 µM one dose, 48 h, read-out: growth percentage
# Procedure: as §1, §2, §3, §4, §5
# [15] = tested on: HL-60(TB); assay: NCI-60 one-dose SRB screening; conditions: Homo sapiens, Leukemia, 10 µM one dose, 48 h, read-out: growth percentage
# Procedure: as §1, §2, §3, §4, §5
# [16] = tested on: SN12C; assay: NCI-60 one-dose SRB screening; conditions: Homo sapiens, Renal Cancer, 10 µM one dose, 48 h, read-out: growth percentage
# Procedure: as §1, §2, §3, §4, §5
# [17] = tested on: HCT-116; assay: NCI-60 one-dose SRB screening; conditions: Homo sapiens, HCT-116, Colon Cancer, 10 µM one dose, 48 h, read-out: growth percentage
# Procedure: as §1, §2, §3, §4, §5
# [18] = tested on: A549/ATCC; assay: NCI-60 one-dose SRB screening; conditions: Homo sapiens, Non-Small Cell Lung Cancer, 10 µM one dose, 48 h, read-out: growth percentage
# Procedure: as §1, §2, §3, §4, §5
# [19] = tested on: OVCAR-8; assay: NCI-60 one-dose SRB screening; conditions: Homo sapiens, OVCAR-8, Ovarian Cancer, 10 µM one dose, 48 h, read-out: growth percentage
# Procedure: as §1, §2, §3, §4, §5
# [20] = tested on: HOP-62; assay: NCI-60 one-dose SRB screening; conditions: Homo sapiens, HOP-62, Non-Small Cell Lung Cancer, 10 µM one dose, 48 h, read-out: growth percentage
# Procedure: as §1, §2, §3, §4, §5
# [21] = tested on: NCI-59 human cancer cell lines; assay: NCI-60 one-dose SRB screening, full panel and subpanels; conditions: for inhibition at 10 µM / activity at 10 µM: Homo sapiens; for activity at 10 µM: mean over the full panel, 10 µM one dose, 48 h, SRB, read-out: growth percentage, Mean
# Procedure: as §1, §2, §3, §4, §5
# Data are expressed as a one-dose mean graph of growth percentages including the mean, delta, and range.
# [22] = full NCI-59 panel, 10 µM, read-out: mean growth inhibition % (MGI%, GI%)
Compound,activity at 10 µM [1] [%],activity at 10 µM [2] [%],activity at 10 µM [3] [%],activity at 10 µM [4] [%],activity at 10 µM [5] [%],activity at 10 µM [6] [%],activity at 10 µM [7] [%],activity at 10 µM [8] [%],activity at 10 µM [9] [%],activity at 10 µM [10] [%],activity at 10 µM [11] [%],activity at 10 µM [12] [%],activity at 10 µM [13] [%],activity at 10 µM [14] [%],activity at 10 µM [15] [%],activity at 10 µM [16] [%],activity at 10 µM [17] [%],activity at 10 µM [18] [%],activity at 10 µM [19] [%],activity at 10 µM [20] [%],other results
"[O-][n+]1onc(-c2ccccc2)c1CNc1ccc(Nc2nc(C(F)(F)F)nc3c2cnn3-c2ccc(Br)cc2)cc1 [12b, 3-(((4-((1-(4-bromophenyl)-6-(trifluoromethyl)-1H-pyrazolo[3,4-d]pyrimidin-4-yl)amino)phenyl)amino)methyl)-4-phenyl-1,2,5-oxadiazole 2-oxide]",22.8,65.4,43.9,72.8,27.9,72,35.6,75.1,88.8,97.5,54.5,78.5,48.2,31.1,79.8,58,46.7,64.4,72.8,77.9,"inhibition at 10 µM ([21]; CNS cancer cell lines, 10 µM, read-out: growth-inhibitory % activity, up to): ≤ 45%; inhibition at 10 µM ([21]; breast cancer cells, 10 µM, read-out: growth-inhibitory % activity, up to): ≤ 61%; inhibition at 10 µM ([21]; colon cancer cell lines, 10 µM, read-out: growth-inhibitory % activity, up to): ≤ 62%; inhibition at 10 µM ([21]; leukemia cell lines, 10 µM, read-out: growth-inhibitory % activity, up to): ≤ 77%; inhibition at 10 µM ([21]; melanoma cell lines, 10 µM, read-out: growth-inhibitory % activity, up to): ≤ 72%; inhibition at 10 µM ([21]; non-small cell lung cancer cell lines, 10 µM, read-out: growth-inhibitory % activity, up to): ≤ 64%; inhibition at 10 µM ([21]; ovarian cancer cell lines, 10 µM, read-out: growth-inhibitory % activity, up to): ≤ 40%; inhibition at 10 µM ([21]; prostate cancer cell lines, 10 µM, read-out: growth-inhibitory % activity, up to): ≤ 52%; inhibition at 10 µM ([21]; renal cancer cell lines, 10 µM, read-out: growth-inhibitory % activity, up to): ≤ 69%; activity at 10 µM [21]: 66.8%"
"Cc1nn(-c2ccccc2)c2nc(CNc3ccc(NCc4c(-c5ccccc5)no[n+]4[O-])cc3)[nH]c(=O)c12 [14b, 3-(((4-(((3-methyl-4-oxo-1-phenyl-4,5-dihydro-1H-pyrazolo[3,4-d]pyrimidin-6-yl)methyl)amino)phenyl)amino)methyl)-4-phenyl-1,2,5-oxadiazole 2-oxide]",75.8,83,107,91.6,97.6,66.9,90,111,85.4,95.9,103,102,77.7,67.1,93.7,89.4,79,74.3,117,110,"inhibition at 10 µM [21, 22]: 8.22%; activity at 10 µM [21]: 91.8%"
"Cc1nn(-c2ccc(Br)cc2)c2ncnc(Nc3ccc(OCc4c(-c5ccccc5)no[n+]4[O-])cc3)c12 [6g, 3-((4-((1-(4-bromophenyl)-3-methyl-1H-pyrazolo[3,4-d]pyrimidin-4-yl)amino)phenoxy)methyl)-4-phenyl-1,2,5-oxadiazole 2-oxide]",103,83.5,101,101,95,97.4,100,104,96.2,104,87.6,95.7,90.9,84.9,115,91.3,90.7,97.3,93.9,94,"inhibition at 10 µM [21, 22]: 1.58 to 4.57%; activity at 10 µM [21]: 98.4%"
"[O-][n+]1onc(-c2ccccc2)c1COc1ccc(Nc2ncnc3c2cnn3-c2ccccc2)cc1 [6a, 4-phenyl-3-((4-((1-phenyl-1H-pyrazolo[3,4-d]pyrimidin-4-yl)amino)phenoxy)methyl)-1,2,5-oxadiazole 2-oxide]",88,98.9,96,114,94.3,107,73.6,106,102,95.4,98.4,130,98.1,99.4,94.7,97.3,93,96,105,107,"activity at 10 µM [21]: 100%; mean growth inhibition % (MGI%, GI%) ([21]; full NCI-59 panel, 10 µM): no mean growth inhibition percentage"
"Cc1nn(-c2ccccc2)c2nc(C(F)(F)F)nc(Nc3ccc(NCc4c(-c5ccccc5)no[n+]4[O-])cc3)c12 [12a, 3-(((4-((3-methyl-1-phenyl-6-(trifluoromethyl)-1H-pyrazolo[3,4-d]pyrimidin-4-yl)amino)phenyl)amino)methyl)-4-phenyl-1,2,5-oxadiazole 2-oxide]",39.8,73.2,61.5,78.7,58,75.8,53,85.6,96.9,103,76.6,70.8,45.6,53,77.2,77.7,41.1,76.6,89.7,93.1,activity at 10 µM [21]: 76.8%
